According to patent EP4378448B1, “EXTRACT OF FLOWERS, LEAVES AND/OR SEED PODS OF IMPATIENS AND LEAVES OF PANDANUS, IN DRIED AND LIQUID FORM, A METHOD OF ITS OBTAINING AND USE THEREOF” (PBCLABS Sp. z o.o., priority 2022, dated 2024):
Blank lines part the entries; values can stand above or below the compound they belong to.

Legend:
Assay type in all cases: biochemical
soybean lipoxygenase = biological target: T1, soybean lipoxygenase (Glycine max, UniProt P08170); experiment: Anti-inflammatory properties, lipoxygenase inhibition; settings: positive control, concentration not given
T1 construct: purchased Sigma-Aldrich Chemie GmbH, Steinheim, Germany
T1 sequence (P08170 1-839): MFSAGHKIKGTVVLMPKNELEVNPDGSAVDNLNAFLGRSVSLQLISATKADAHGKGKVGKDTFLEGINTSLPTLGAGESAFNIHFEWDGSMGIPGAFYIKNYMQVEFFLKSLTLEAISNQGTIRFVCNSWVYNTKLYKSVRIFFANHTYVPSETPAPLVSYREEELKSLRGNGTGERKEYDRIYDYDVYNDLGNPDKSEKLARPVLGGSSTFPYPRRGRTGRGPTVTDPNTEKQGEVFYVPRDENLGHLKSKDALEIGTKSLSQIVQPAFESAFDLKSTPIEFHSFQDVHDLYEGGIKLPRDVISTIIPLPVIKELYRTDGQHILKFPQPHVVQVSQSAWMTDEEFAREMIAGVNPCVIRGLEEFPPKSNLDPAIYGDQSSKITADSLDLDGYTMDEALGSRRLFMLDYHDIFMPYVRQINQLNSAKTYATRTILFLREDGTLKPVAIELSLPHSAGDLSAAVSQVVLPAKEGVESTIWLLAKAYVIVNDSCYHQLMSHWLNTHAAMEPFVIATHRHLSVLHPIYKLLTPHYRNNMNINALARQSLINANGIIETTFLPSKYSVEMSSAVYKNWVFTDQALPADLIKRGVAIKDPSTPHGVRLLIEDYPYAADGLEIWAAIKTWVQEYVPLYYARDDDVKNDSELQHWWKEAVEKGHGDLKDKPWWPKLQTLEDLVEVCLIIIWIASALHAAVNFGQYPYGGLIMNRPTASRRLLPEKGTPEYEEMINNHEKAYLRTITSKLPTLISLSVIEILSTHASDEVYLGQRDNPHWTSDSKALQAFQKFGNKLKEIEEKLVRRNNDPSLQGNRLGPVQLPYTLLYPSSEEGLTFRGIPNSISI
Description: The study of anti-inflammatory activity of the extract of Example 1 was assessed on the basis of lipoxygenase inhibition using a spectrophotometric method in 96-well plates. For this purpose, 100 µL of various concentrations of extract solution in potassium phosphate buffer (pH = 8.5), 50 µL of soybean lipoxygenase solution (LOX; 167 U/mL; Sigma-Aldrich Chemie GmbH, Steinheim, Germany) in potassium phosphate buffer (pH = 8.5), and finally 50 µL of linoleic acid solution (LA; 134 µM; Sigma-Aldrich Chemie GmbH, Steinheim, Germany) were added to the wells. Changes in absorbance at 234 nm were then measured for a period of 25 minutes with intervals of 30 seconds. Indomethacin (Sigma-Aldrich) was used as a positive control. The activity of the extract was calculated as the percentage of LOX enzyme activity (% of activity) in relation to the maximal activity (negative control - solution without studied extract) after subtracting the absorbance of the extract at 234 nm in all cases. Absorbance values at the 10th minute of the reaction were used for the calculations.

fungal tyrosinase = experiment: Inhibition of fungal tyrosinase activity (L-DOPA substrate); settings: standard at 100 µL/mL
Description: The tyrosinase (EC 1.14.18.1, 25 KU, fungal tyrosinase, Sigma-Aldrich) inhibitory effect was measured using L-3,4-dihydroxyphenylalanine (L-DOPA, Supelco) as a substrate. To perform it, various concentrations of the studied extract (20 µL), tyrosinase solution (200 U/mL, 40 µL) and phosphate buffer (100 µL, 50 mM, pH 6.5) were applied to a 96-well plate, and then incubated for 15 minutes at 25°C. The reaction was started with the addition of L-DOPA (40 µL) and incubated for a further 15 minutes, after which the absorbance was measured at wavelength of λ=475 nm compared to the control without the inhibitor. In the control sample, representing 100% of enzyme activity, phosphate buffer was added instead of the extract. Tyrosinase inhibitory activity was determined by comparing the enzyme activity in samples with and without the assessed inhibitor. Kojic acid (Supelco) at a concentration of 100 µL/mL was used as a standard.

[1] = tested on: collagenase from Clostridium haemolyticum; experiment: Inhibition of collagenase activity (FALGPA substrate); settings: 100 µg/mL (extract in glycerol; EGCG standard at 100 µg/mL)
Description: The enzymatic method for the determination of collagenase (EC 3.4.24.3) using FALGPA (N-(3-[2-furyl]acryloyl)-Leu-Gly-Pro-Ala) as substrate for collagenase, which was dissolved in 50 mM Tricine buffer (pH 7.5) at an initial concentration of 0.8 U/mL, was used for the study. FALGPA was dissolved in Tricine buffer to 2 mM. Various concentrations were prepared from the lyophilised extract of Example 1 by dissolving in glycerol and incubating with the enzyme for 15 minutes before adding the substrate to start the reaction. The final reaction mixture (150 µL) contained Tricine buffer, 0.8 mM of FALGPA, 0.1 U of collagenase and the extract at appropriate concentration. Epigallocatechin gallate (EGCG; Supelco) at the concentration of 100 µg/mL was used as a standard. The absorbance at wavelength of λ=345 nm was measured immediately after substrate addition and then continuously for 20 minutes.

[2] = biological target: T2, porcine pancreatic elastase (Sus scrofa, UniProt P00772); experiment: Inhibition of elastase activity (AAAPVN substrate); settings: 100 µg/mL (extract in glycerol; EGCG standard at 100 µg/mL)
T2 construct: purchased Sigma-Aldrich
T2 sequence (P00772 27-266): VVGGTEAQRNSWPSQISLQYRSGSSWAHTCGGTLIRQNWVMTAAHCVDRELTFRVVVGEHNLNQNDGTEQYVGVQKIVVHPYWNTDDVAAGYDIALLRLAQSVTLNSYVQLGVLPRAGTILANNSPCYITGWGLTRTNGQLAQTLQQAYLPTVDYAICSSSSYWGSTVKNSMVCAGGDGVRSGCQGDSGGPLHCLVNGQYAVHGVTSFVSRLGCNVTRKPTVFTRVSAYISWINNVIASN
Description: The method using porcine pancreatic elastase (PE - E.C.3.4.21.36; Sigma-Aldrich) was used for the study, which was dissolved in distilled water to prepare a stock solution with a concentration of 3.33 mg/mL. The substrate […] (AAAPVN; Sigma-Aldrich) was dissolved in 1.6 mM Tris-HCl buffer (pH 8.0). The extract of Example 1 dissolved in glycerol (concentrations of 5-100 µg/mL) was incubated with the enzyme for 15 minutes before adding the substrate to start the reaction. The final reaction mixture in the well of the 96-well plate (total volume 200 µL) contained buffer, 0.8 mM of AAAPVN, 1 µg/mL of elastase and 25 µL of extract at the appropriate concentration. Epigallocatechin gallate (EGCG; Supelco) at the concentration of 100 µg/mL was used as a standard. Negative controls were performed using water. Absorbance values were measured immediately after substrate addition and then after 20 minutes at wavelength of λ=410 nm.

- Inhibition of LOX activity [%] (soybean lipoxygenase): 99.80%
SMILES: COc1ccc2c(c1)c(CC(=O)O)c(C)n2C(=O)c1ccc(Cl)cc1 [Indomethacin]

- Tyrosinase inhibition [%] (fungal tyrosinase): 61.17%
SMILES: O=c1cc(CO)occ1O [kojic acid]

SMILES: O=C(O[C@@H]1Cc2c(O)cc(O)cc2O[C@@H]1c1cc(O)c(O)c(O)c1)c1cc(O)c(O)c(O)c1 [EGCG, Epigallocatechin gallate]
- Collagenase inhibition (%) [1]: 84.45%
- inhibition at 100 µg/mL [2]: 92.2%
